Results: ChEMBL document CHEMBL1148562, “Synthesis and biological evaluation of novel pyrrolo[2,1-c][1,4]benzodiazepine prodrugs for use in antibody-directed enzyme prodrug therapy” (Bioorg Med Chem Lett, 2006)
pIC50: −log10 of the molar value.

Columns and labels:
LS174T [1] = assay: Cytotoxicity against LS174T human colon cell line after 1 hour of exposure; assay type: functional, cell-based
LS174T [2] = assay: Cytotoxicity against LS174T human colon cell line after continuous exposure; assay type: functional, cell-based
[3] = Conversion of prodrug to parent in distilled water at 37 degC for 24 hrs; assay type: ADME; details: buffer
[4] = Conversion of prodrug to parent in distilled water at room temperature for 24 hrs; assay type: ADME; details: buffer

| SMILES | pIC50 (LS174T [1]) | pIC50 (LS174T [2]) | Activity [3] | Activity [4] | Stability [4] |
| --- | --- | --- | --- | --- | --- |
| COc1cc2c(cc1OC)N(C(=O)OCc1ccc(NC(=O)N[C@@H](CCC(=O)O)C(=O)O)cc1)[C@@H](O)[C@@H]1CCCN1C2=O | 4.55 | 5.80 | Active | Active |  |
| COc1cc2c(cc1OCCCOc1cc3c(cc1OC)C(=O)N1CCC[C@H]1[C@H](O)N3C(=O)OCc1ccc(NC(=O)N[C@@H](CCC(=O)O)C(=O)O)cc1)N(C(=O)OCc1ccc(NC(=O)N[C@@H](CCC(=O)O)C(=O)O)cc1)[C@@H](O)[C@@H]1CCCN1C2=O | 8.22 | 9.10 | Active | Active |  |
| COc1cc2c(cc1OC)C(=O)N1CCC[C@H]1C=N2 | 4.85 | 5.85 |  |  |  |
| COc1cc2c(cc1OCCCOc1cc3c(cc1OC)C(=O)N1CCC[C@H]1[C@H](O)N3C(=O)OCc1ccc(OC(=O)N[C@@H](CCC(=O)O)C(=O)O)cc1)N(C(=O)OCc1ccc(OC(=O)N[C@@H](CCC(=O)O)C(=O)O)cc1)[C@@H](O)[C@@H]1CCCN1C2=O | 6.70 | 7.68 | 3% |  | Stable |
| COc1cc2c(cc1OC)N(C(=O)OCc1ccc(OC(=O)N[C@@H](CCC(=O)O)C(=O)O)cc1)[C@@H](O)[C@@H]1CCCN1C2=O | < 4.00 | 4.70 | 7% |  | Stable |
| COc1cc2c(cc1OCCCOc1cc3c(cc1OC)C(=O)N1CCC[C@H]1C=N3)N=C[C@@H]1CCCN1C2=O [DSB-120] | 7.89 | 9.33 |  |  |  |
